{"source": "ChEMBL document CHEMBL3526031", "about": "“Mechanistic studies on the absorption and disposition of scutellarin in humans: selective OATP2B1-mediated hepatic uptake is a likely key determinant for its unique pharmacokinetic characteristics” (Drug Metab Dispos, 2012)", "key": {"[1]": {"assay": "Ratio of Vmax to Km for drug metabolism in rat intestinal microsomes assessed as formation of scutellarein-6,7-diglucuronide after 7 mins by HPLC/UV analysis", "assay_type": "ADME, Intestine, Microsome"}, "[2]": {"assay": "Cmax in human at 60 mg, po", "assay_type": "ADME, organism-based", "design": "dose 60 mg, route oral", "conditions": "in vivo"}, "Homo sapiens": {"test_system": "Homo sapiens", "assay": "Drug metabolism in human assessed as retention time of parent compound at 40 mg, po up to 20 hrs by mass defect filter chromatogram analysis", "assay_type": "ADME, organism-based", "conditions": "in vivo"}, "[3]": {"target": "T1, Broad substrate specificity ATP-binding cassette transporter ABCG2 (Homo sapiens, UniProt Q9UNQ0)", "T1 sequence (Q9UNQ0 whole entry)": "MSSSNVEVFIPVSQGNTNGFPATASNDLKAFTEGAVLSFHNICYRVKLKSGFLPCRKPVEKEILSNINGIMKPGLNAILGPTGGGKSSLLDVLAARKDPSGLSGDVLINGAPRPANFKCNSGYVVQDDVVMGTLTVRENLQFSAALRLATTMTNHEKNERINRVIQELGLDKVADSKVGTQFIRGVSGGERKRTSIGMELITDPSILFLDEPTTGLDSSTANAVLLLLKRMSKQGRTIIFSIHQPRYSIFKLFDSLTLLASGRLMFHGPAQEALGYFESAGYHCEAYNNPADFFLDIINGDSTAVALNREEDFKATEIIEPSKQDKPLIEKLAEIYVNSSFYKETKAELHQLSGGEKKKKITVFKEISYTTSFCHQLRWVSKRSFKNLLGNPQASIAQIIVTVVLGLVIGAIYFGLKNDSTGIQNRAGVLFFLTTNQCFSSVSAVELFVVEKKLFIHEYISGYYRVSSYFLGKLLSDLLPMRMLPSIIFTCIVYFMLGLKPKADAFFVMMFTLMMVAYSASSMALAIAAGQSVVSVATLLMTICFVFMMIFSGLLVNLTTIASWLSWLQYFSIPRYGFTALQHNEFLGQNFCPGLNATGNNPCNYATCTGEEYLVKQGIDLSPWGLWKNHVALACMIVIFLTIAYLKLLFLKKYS", "assay": "Drug uptake assessed as human BCRP-mediated drug transport using inside-out membrane vesicles by measuring +ATP/-ATP ratio by LC-MS/MS analysis", "assay_type": "ADME"}, "Liver microsome": {"target": "Liver microsome", "assay": "Drug metabolism in rat liver microsomes assessed as formation of scutellarein-6,7-diglucuronide after 7 mins by HPLC/UV analysis", "assay_type": "ADME", "conditions": "for Km / Vmax: rat, microsomes, 7 min"}, "[4]": {"target": "T2, UDP-glucuronosyltransferase 1A8 (Homo sapiens, UniProt Q9HAW9)", "T2 sequence (Q9HAW9 whole entry)": "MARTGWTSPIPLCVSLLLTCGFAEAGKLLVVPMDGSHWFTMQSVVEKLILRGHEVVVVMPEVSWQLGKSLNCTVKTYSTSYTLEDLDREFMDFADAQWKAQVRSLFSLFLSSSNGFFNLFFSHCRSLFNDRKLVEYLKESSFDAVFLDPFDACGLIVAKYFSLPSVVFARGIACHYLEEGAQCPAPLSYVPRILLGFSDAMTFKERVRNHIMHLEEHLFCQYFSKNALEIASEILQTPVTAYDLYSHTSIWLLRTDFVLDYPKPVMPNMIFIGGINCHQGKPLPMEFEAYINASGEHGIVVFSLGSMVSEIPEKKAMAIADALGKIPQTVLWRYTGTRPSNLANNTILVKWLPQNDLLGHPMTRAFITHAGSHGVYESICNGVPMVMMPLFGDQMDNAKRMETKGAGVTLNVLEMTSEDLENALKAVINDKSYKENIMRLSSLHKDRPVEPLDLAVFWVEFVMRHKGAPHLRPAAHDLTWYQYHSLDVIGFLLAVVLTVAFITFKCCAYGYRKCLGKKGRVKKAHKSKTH", "assay": "Drug metabolism assessed as human recombinant UGT1A8-mediated formation of scutellarein-6,7-diglucuronide after 25 mins by HPLC/UV analysis", "assay_type": "ADME", "conditions": "recombinant enzyme"}, "[5]": {"target": "T3, UDP-glucuronosyltransferase 1A10 (Homo sapiens, UniProt Q9HAW8)", "T3 sequence (Q9HAW8 whole entry)": "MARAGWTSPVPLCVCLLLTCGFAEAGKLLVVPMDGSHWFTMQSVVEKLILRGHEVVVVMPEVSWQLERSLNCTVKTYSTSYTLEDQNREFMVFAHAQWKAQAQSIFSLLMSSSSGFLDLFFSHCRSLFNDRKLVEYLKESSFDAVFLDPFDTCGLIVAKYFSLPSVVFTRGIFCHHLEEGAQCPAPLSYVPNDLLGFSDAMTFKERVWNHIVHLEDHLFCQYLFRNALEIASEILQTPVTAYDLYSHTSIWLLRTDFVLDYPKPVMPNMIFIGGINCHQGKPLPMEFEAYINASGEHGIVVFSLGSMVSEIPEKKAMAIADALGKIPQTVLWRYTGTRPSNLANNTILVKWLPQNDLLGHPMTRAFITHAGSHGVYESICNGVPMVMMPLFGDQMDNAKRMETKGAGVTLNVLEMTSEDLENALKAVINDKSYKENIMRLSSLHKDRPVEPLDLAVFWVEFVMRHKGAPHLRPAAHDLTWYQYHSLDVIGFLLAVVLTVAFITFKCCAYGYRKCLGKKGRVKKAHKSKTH", "assay": "Ratio of Vmax to Km for drug metabolism assessed as human recombinant UGT1A10-mediated formation of scutellarein-6,7-diglucuronide after 25 mins by HPLC/UV analysis", "assay_type": "ADME", "conditions": "recombinant enzyme"}, "[6]": {"target": "T4, Solute carrier organic anion transporter family member 2B1 (Homo sapiens, UniProt O94956)", "T4 sequence (O94956 whole entry)": "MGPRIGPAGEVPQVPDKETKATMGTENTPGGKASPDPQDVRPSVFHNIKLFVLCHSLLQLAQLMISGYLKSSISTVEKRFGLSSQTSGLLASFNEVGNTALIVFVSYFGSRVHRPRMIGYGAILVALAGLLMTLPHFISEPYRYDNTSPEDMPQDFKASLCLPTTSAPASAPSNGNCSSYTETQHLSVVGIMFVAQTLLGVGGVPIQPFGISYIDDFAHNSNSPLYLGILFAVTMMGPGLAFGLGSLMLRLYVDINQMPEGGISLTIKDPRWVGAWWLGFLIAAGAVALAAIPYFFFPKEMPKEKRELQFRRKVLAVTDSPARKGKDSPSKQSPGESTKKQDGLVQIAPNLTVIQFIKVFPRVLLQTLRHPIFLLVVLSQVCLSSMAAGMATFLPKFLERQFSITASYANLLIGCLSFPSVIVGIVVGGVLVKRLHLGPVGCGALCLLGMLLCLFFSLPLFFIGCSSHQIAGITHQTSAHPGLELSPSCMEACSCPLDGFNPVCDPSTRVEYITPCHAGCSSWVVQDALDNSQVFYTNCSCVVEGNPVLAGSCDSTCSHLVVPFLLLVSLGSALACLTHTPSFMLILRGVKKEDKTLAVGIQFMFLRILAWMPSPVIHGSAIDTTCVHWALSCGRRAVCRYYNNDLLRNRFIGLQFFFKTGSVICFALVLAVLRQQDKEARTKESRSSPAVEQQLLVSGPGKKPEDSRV", "assay": "Drug uptake assessed as OATP2B1 (unknown origin)-mediated drug transport expressed in HEK293 cells by LC-MS/MS analysis", "assay_type": "ADME, cell-based"}, "[7]": {"target": "T2, UDP-glucuronosyltransferase 1A8", "assay": "Ratio of Vmax to Km for drug metabolism assessed as human recombinant UGT1A8-mediated formation of scutellarein-6,7-diglucuronide after 25 mins by HPLC/UV analysis", "assay_type": "ADME", "conditions": "recombinant enzyme"}}, "data": [{"compound": "O=C(O)[C@H]1O[C@@H](Oc2cc3oc(-c4ccc(O)cc4)cc(=O)c3c(O)c2O)[C@H](O)[C@@H](O)[C@@H]1O", "note": "[SCUTELLARIN]", "values": [{"measurement": "Vmax/Km", "setting": "[1]", "value": 18.9, "unit": "µL/min/mg"}, {"measurement": "Cmax", "setting": "[2]", "value": "< 4", "unit": "nM"}, {"measurement": "Retention_time", "setting": "Homo sapiens", "value": 7.93, "unit": "min"}, {"measurement": "Ratio", "setting": "[3]", "value": 57.5}, {"measurement": "Ki", "setting": "Liver microsome", "value": 302, "unit": "µM"}, {"measurement": "Km", "setting": "Liver microsome", "value": 15.2, "unit": "µM"}, {"measurement": "Vmax", "setting": "Liver microsome", "value": 3.1, "unit": "nmol/min/mg"}]}, {"compound": "O=C(O)[C@H]1O[C@@H](Oc2c(O)cc3oc(-c4ccc(O)cc4)cc(=O)c3c2O)[C@H](O)[C@@H](O)[C@@H]1O", "values": [{"measurement": "Vmax", "setting": "[4]", "value": 0.465, "unit": "nmol/min/mg"}, {"measurement": "Vmax/Km", "setting": "[5]", "value": 2.84, "unit": "µL/min/mg"}, {"measurement": "Ki", "setting": "[6]", "value": 25.9, "unit": "µM"}, {"measurement": "Vmax/Km", "setting": "[7]", "value": 7.96, "unit": "µL/min/mg"}, {"measurement": "Vmax/Km", "setting": "[1]", "value": 30, "unit": "µL/min/mg"}, {"measurement": "Ratio", "setting": "[3]", "value": 57.5}, {"measurement": "Ki", "setting": "Liver microsome", "value": 78.3, "unit": "µM"}, {"measurement": "Km", "setting": "Liver microsome", "value": 21.2, "unit": "µM"}, {"measurement": "Vmax", "setting": "Liver microsome", "value": 1.94, "unit": "nmol/min/mg"}]}]}
